Source: PubChem BioAssay (NCI)
Several values for one entry are separate records, joined by “and”; a condition that tells them apart may be missing. Equal entries are not always repeated.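 Assay format: 96-well plates, 48-hour exposure. GI50: concentration for 50% inhibition of growth. The concentration for full growth arrest is given as TGI.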

Assays:
Assay in all cases: NCI anticancer screen, dose series, 48 h
[1] = test system: A549 NSCLC
[2] = test system: COLO 205 colon
[3] = test system: MDA-MB-435
[4] = test system: NCI-H226 lung
[5] = test system: OVCAR-5 ovarian
[6] = test system: RPMI-8226 leukemia
[7] = test system: RXF 393 renal
[8] = test system: SF-295 CNS
[9] = test system: SK-MEL-28 melanoma
[10] = test system: T-47D breast

O=C(NCCOCCOCCOCCNC(=O)c1cc2c(o1)C(=O)c1ccccc1C2=O)NC12CC3CC(CC(C3)C1)C2
GI50 [1]: 0.517 µM | TGI [1]: 2.34 µM | GI50 [2]: 1.96 µM | TGI [2]: 3.97 µM | GI50 [3]: 0.388 µM | TGI [3]: 1.36 µM | GI50 [4]: 1.56 µM | TGI [4]: 3.66 µM | GI50 [5]: 1.83 µM | TGI [5]: 3.28 µM | GI50 [6]: 1.87 µM | TGI [6]: 5.63 µM | GI50 [7]: 1.58 µM | TGI [7]: 3.05 µM | GI50 [8]: 1.65 µM | TGI [8]: 3.07 µM | GI50 [9]: 1.94 µM | TGI [9]: 3.75 µM | GI50 [10]: 1.59 µM | TGI [10]: 6.02 µM

Cc1c2ccncc2c(C)c2c1sc1ccccc12
TGI [1]: 18.3 µM | TGI [2]: 26.9 µM | TGI [3]: 39.3 µM | TGI [4]: 42.9 µM | TGI [5]: 46.7 µM | TGI [6]: 48 µM | TGI [7]: 23.9 µM | TGI [8]: 26.4 µM | TGI [9]: 32.7 µM | TGI [10]: > 100 µM

COc1ccc2c(c1)/C(=C\c1c(-c3cc(OC)ccc3OC)nc3sccn13)C(=O)N2
GI50 [1]: 48.6 µM | TGI [1]: > 100 µM | GI50 [2]: 1.51 µM | TGI [2]: 2.84 µM | GI50 [3]: 2.05 µM and 14.3 µM | TGI [3]: 4.6 µM and 39 µM | GI50 [4]: 11.8 µM | TGI [4]: 54.2 µM | GI50 [5]: 6.65 µM and 1.73 µM | TGI [5]: 3.1 µM | GI50 [6]: 3.4 µM | GI50 [7]: 1.77 µM | TGI [7]: 3.93 µM | GI50 [8]: 5.31 µM and 18.2 µM | TGI [8]: 44.1 µM | GI50 [9]: 1.49 µM | TGI [9]: 2.81 µM | GI50 [10]: 1.32 µM | TGI [10]: 2.74 µM

CNC(=O)c1c(F)cccc1Nc1nc(Nc2cc3c(cc2OC)CCN3C(=O)CN(C)C)nc2[nH]ccc12
GI50 [1]: 1.74 µM | TGI [1]: 14.4 µM | GI50 [2]: 0.151 µM | TGI [2]: 3.48 µM | GI50 [3]: 1.4 µM | TGI [3]: 3.51 µM | GI50 [4]: 16.2 µM | TGI [4]: 43.6 µM | GI50 [5]: 4.88 µM | TGI [5]: 26.3 µM | GI50 [6]: 4.94 µM | TGI [6]: 17.4 µM | GI50 [7]: 1.8 µM | TGI [7]: 3.6 µM | GI50 [8]: 19 µM | TGI [8]: 38.2 µM | GI50 [9]: 1.57 µM | TGI [9]: 2.97 µM | GI50 [10]: 8.19 µM | TGI [10]: 28.4 µM

Nc1ncc(-c2ccc3ncnc(N4CCc5ccc(Cl)cc54)c3c2)cc1C(F)(F)F
GI50 [1]: 1.29 µM | TGI [1]: 14 µM | GI50 [2]: 3.68 µM | TGI [2]: 30.5 µM | GI50 [3]: 1.68 µM | TGI [3]: 13.5 µM | GI50 [4]: 3.04 µM | TGI [4]: 24.1 µM | GI50 [5]: 0.916 µM | TGI [5]: 14.4 µM | GI50 [6]: 2.82 µM | TGI [6]: > 100 µM | GI50 [7]: 0.181 µM | TGI [7]: 0.864 µM | GI50 [8]: 1.4 µM | TGI [8]: 16.5 µM | GI50 [9]: 2.01 µM | TGI [9]: 13.9 µM | GI50 [10]: 0.557 µM | TGI [10]: 10.9 µM

Cc1ccc(-c2nc(-c3nccc4ccccc34)oc2-c2ccccc2)cc1
TGI [1]: > 100 µM | TGI [2]: > 100 µM | TGI [3]: > 100 µM | TGI [4]: > 100 µM | TGI [5]: > 100 µM | TGI [6]: > 100 µM | TGI [7]: > 100 µM | TGI [8]: > 100 µM | TGI [9]: > 100 µM | TGI [10]: > 100 µM

NC(Cc1c[nH]c2ccc([N+](=O)[O-])cc12)C(=O)O (stereo not drawn)
TGI [1]: > 100 µM | TGI [2]: > 100 µM | TGI [3]: > 100 µM | TGI [4]: > 100 µM | TGI [5]: > 100 µM | TGI [6]: > 100 µM | TGI [7]: > 100 µM | TGI [8]: > 100 µM | TGI [9]: > 100 µM | TGI [10]: > 100 µM

C#C[C@@]1(O)[C@@H](CO)O[C@@H](n2cc(C(F)(F)F)c3c(N)ncnc32)[C@@H]1O
GI50 [1]: 0.871 µM | TGI [1]: > 19.7 µM | GI50 [2]: 0.255 µM | TGI [2]: 1.27 µM | GI50 [3]: 0.808 µM | TGI [3]: 11.3 µM | GI50 [4]: 2.7 µM | TGI [4]: > 100 µM | GI50 [5]: 1.59 µM | TGI [5]: 7.06 µM | GI50 [6]: 0.886 µM | TGI [6]: 4.56 µM | GI50 [7]: 0.841 µM | TGI [7]: 2.74 µM | GI50 [8]: 2.18 µM | TGI [8]: 8.09 µM | GI50 [9]: 1.83 µM | TGI [9]: 10 µM | GI50 [10]: 0.0639 µM | TGI [10]: 3.77 µM

CCCc1nc(Cl)c(Cl)c(Cl)n1
TGI [1]: > 100 µM | TGI [2]: > 100 µM | TGI [3]: > 62 µM | TGI [4]: > 94.6 µM | TGI [5]: 97.9 µM | TGI [6]: 3.94 µM | TGI [7]: 56.4 µM | TGI [8]: > 100 µM | TGI [9]: > 100 µM | TGI [10]: > 100 µM

O=C(Nc1cc(Cl)ccc1O)c1cccc(Nc2ccnc(C(F)(F)F)c2)c1
GI50 [1]: 2.94 µM | TGI [1]: 66 µM | GI50 [2]: 3.18 µM | TGI [2]: 15 µM | GI50 [3]: 2.83 µM | TGI [3]: 12.2 µM | GI50 [4]: 4.84 µM | TGI [4]: 39.5 µM | GI50 [5]: 13.9 µM | TGI [5]: 38.5 µM | GI50 [6]: 0.822 µM | TGI [6]: 4.04 µM | GI50 [7]: 11 µM | TGI [7]: 29.1 µM | GI50 [8]: 2.38 µM | TGI [8]: 11.1 µM | GI50 [9]: 6.15 µM | TGI [9]: 19.1 µM | GI50 [10]: 1.02 µM | TGI [10]: 7.51 µM

O=C(Nc1ccccc1)OC1OC(COC(=O)c2ccccc2)C(OC(=O)c2ccccc2)C1OS(=O)(=O)c1ccc([N+](=O)[O-])cc1 (stereo not drawn)
TGI [1]: > 100 µM | TGI [2]: > 100 µM | TGI [3]: > 100 µM | TGI [4]: > 100 µM | TGI [5]: > 100 µM | TGI [6]: > 100 µM | TGI [7]: > 100 µM | TGI [8]: > 100 µM | TGI [9]: > 100 µM | TGI [10]: > 100 µM

Fc1ccc(-c2nn3ccccc3c2-c2ccncc2)cc1
GI50 [1]: > 25 µM | TGI [1]: > 25 µM | GI50 [2]: > 25 µM | TGI [2]: > 25 µM | GI50 [3]: > 25 µM | TGI [3]: > 25 µM | GI50 [4]: > 25 µM | TGI [4]: > 25 µM | GI50 [5]: > 25 µM | TGI [5]: > 25 µM | GI50 [6]: > 25 µM | TGI [6]: > 25 µM | GI50 [7]: > 25 µM | TGI [7]: > 25 µM | GI50 [8]: > 25 µM | TGI [8]: > 25 µM | GI50 [9]: > 25 µM | TGI [9]: > 25 µM | GI50 [10]: > 21 µM | TGI [10]: > 25 µM

COc1ccccc1/C=C\C(=O)C1COCN1 (stereo not drawn)
TGI [1]: 48.8 µM | TGI [2]: 33.2 µM | TGI [3]: 26.4 µM | TGI [4]: 39.7 µM | TGI [5]: 67.4 µM | TGI [6]: 7.53 µM | TGI [7]: 81.8 µM | TGI [8]: 50.8 µM | TGI [9]: 36.6 µM | TGI [10]: 20.7 µM

CCOc1ccc(C(C[N+](=O)[O-])Sc2ccccc2N)cc1 (stereo not drawn)
GI50 [1]: 7.82 µM | TGI [1]: 23 µM | GI50 [2]: 4.74 µM | TGI [2]: 16.8 µM | GI50 [3]: 2.25 µM | TGI [3]: 6.95 µM | GI50 [4]: 3.96 µM | TGI [4]: 16.2 µM | GI50 [5]: 11.2 µM | TGI [5]: 23.2 µM | GI50 [6]: 2.23 µM | TGI [6]: 5.32 µM | GI50 [7]: 2.1 µM | TGI [7]: 4.6 µM | GI50 [8]: 4.39 µM | TGI [8]: 17.3 µM | GI50 [9]: 4.03 µM | TGI [9]: 14.8 µM | GI50 [10]: 6.77 µM | TGI [10]: 25.3 µM

C#CC1(O)C(COP(=O)(O)OCC2OC(n3cc(F)c(=O)[nH]c3=O)CC2O)OC(n2ccc(N)nc2=O)C1O (stereo not drawn)
GI50 [1]: < 0.01 µM | TGI [1]: > 100 µM | GI50 [2]: < 0.01 µM | TGI [2]: 0.96 µM | GI50 [3]: < 0.01 µM | TGI [3]: 0.181 µM | GI50 [4]: < 0.01 µM | TGI [4]: > 100 µM | GI50 [5]: 0.309 µM | TGI [5]: > 59.1 µM | GI50 [6]: < 0.01 µM | TGI [6]: 0.119 µM | GI50 [7]: < 0.0387 µM | TGI [7]: 1.48 µM | GI50 [8]: < 0.01 µM | TGI [8]: 4.26 µM | GI50 [9]: < 0.01 µM | TGI [9]: 0.378 µM | GI50 [10]: < 0.0238 µM
